“And” between values parts separate entries of the source, which are not always exact repeats. Equal entries are not always repeated.
Tests used:
[1] = Ionization constants by potentiometric titration; assay type: physicochemical; details: basic pKa (B), mean ± SD, n = 3 titrations
Experimental: The autotitrator was controlled by Tiamo software (Version 1.3). pH measurements were conducted using a Metrohm LL Micro glass electrode which was calibrated on the day of use with calibration standards at pH 2, 4, 7 and 10. All reagents were standardized (directly or indirectly) against potassium hydrogen phthalate (Sigma-Aldrich, A.C.S. Acidimetric Standard). Titrant solutions were protected from carbon dioxide absorption by flushing with nitrogen before sealing or by the incorporation of a drying tube filled with self-indicating soda lime into the titration reaction vessel set-up.
Aliquots were introduced directly into the titration vessel and diluted 1:10 with water (typical final compound concentration of 0.5 mM).

[2] = Octanol/pH 7.4 buffer partition coefficient, shake flask; details: octanol/pH 7.4 buffer, shake flask, 37 °C
Experimental: Partition coefficients between octanol and pH 7.4 buffer were measured using a shake flask method. A stock solution of test compound in octanol was prepared at a concentration between 3 and 30 mg/mL based on the expected partition coefficient value. This stock solution was then diluted 3- and 10-fold with octanol and used to prepare the octanol phase for the partitioning experiments. Two different dilutions were used to confirm that there were no saturation effects. Phosphate buffered saline was prepared by combining 67 mM disodium hydrogen orthophosphate and sodium dihydrogen orthophosphate (both prepared in 43 mM NaCl) to a final pH of 7.4.
Partitioning experiments were conducted by mixing equal volumes of the octanol (containing test compound) and aqueous phases and placing on a vibrating plate mixer in an incubator at 37 °C. […] An aliquot of the aqueous phase was carefully removed and centrifuged again to ensure no contamination from the octanol phase before sampling in duplicate and diluting with aqueous methanol for analysis. Diluted samples were analysed by LC–MS along with calibration standards (Additional file 1: Table S2) and partition coefficients were calculated from the ratio of the mean octanol to buffer concentration after accounting for the dilution factors. The partitioning results for the two time points were used to confirm that the partitioning experiment had reached equilibrium.

[3] = Solubility in biorelevant media; details: 37 °C
Experimental: Solubility of each active pharmaceutical ingredient was evaluated at 37 °C in pH 7.4 phosphate buffered saline (prepared as described for the partitioning experiments), fasted (FaSSIF-V2) and fed (FeSSIF-V2) state simulated intestinal fluids and fasted state simulated gastric fluid (FaSSGF) as described by Jantratid et al.. […] Samples were vortexed and placed in a 37 °C incubator on an orbital mixer (IKA® VXR basic Vibrax® orbital mixer) set at 600 rpm. Sampling times were 1 h for FaSSGF or 5–6 h for FaSSIF-V2, FeSSIF-V2, and PBS. These times were used to reflect the maximal likely residence times within the stomach and small intestine, respectively. Sampling was carried out by centrifuging each sample at 10,000 rpm for 3 min, transferring 300 µL aliquots into fresh Eppendorf tubes and centrifuging these tubes again at 10,000 rpm for 3 min. Triplicate aliquots of the supernatant were then removed and diluted 1:2 in 50% aqueous methanol and then again in 50% aqueous acetonitrile to be within the analytical concentration range. Samples were analysed by LC–MS along with calibration standards (Additional file 1: Table S2).

Caco-2 cell monolayers = test: Bidirectional permeability across Caco-2 cell monolayers; details: matrix: human plasma, corrected for fu
Experimental: Bidirectional permeability was assessed across Caco-2 cell monolayers as described previously. Briefly, permeability experiments were performed using either aqueous transport buffer (pH 7.4 Hanks balanced salt solution containing 20 mM HEPES) or human plasma (Australian Red Cross Blood Service) in both the apical and basolateral chambers. […] The final DMSO concentration in the donor solution was 0.1% v/v.
Samples from the donor chamber were taken at the start and end of the experiment. […] Donor and acceptor samples were stored frozen at − 80 °C until analysis by LC–MS (Additional file 1: Table S2) with sample preparation as described previously. The mass balance and apparent permeability coefficient (Papp) were calculated as previously described.
Where human plasma was used as the transport medium, Papp values were calculated as shown above, with correction for the fraction unbound (fu) in the donor solution Cdonorinitial×fu with fu determined at a similar concentration to that used in the transport experiment. The apparent flux of lucifer yellow was based on an endpoint measurement assuming no lag time. The efflux ratio was calculated as the ratio of the mean B–A to A–B Papp values.

physchem = test: physchem
Description: Predicted Peff values were obtained from a calibration plot of literature Peff values vs measured Caco-2 Papp using either buffer or plasma as the transport medium (see Results section).

[4] = In vitro metabolism (metabolic stability) in human liver microsomes; details: human, microsomes, control compounds
Experimental: The metabolic stability assay was adapted from a previously published method. […] Reactions were quenched at 2, 5, 15, 30 and 60 min by the addition of acetonitrile containing 150 ng/mL diazepam as internal standard. Control samples (containing no cofactor) were included (quenched at 2, 30 and 60 min) to monitor degradation in the absence of cofactor. Concentrations were determined by LC–MS (Additional file 1: Table S2) by comparison to the response for a single point calibration standard prepared in quenched microsomal matrix.
Test compound concentration versus time data were fit using an exponential decay function to determine the first-order rate constant for substrate depletion. Where deviation from first-order kinetics was evident, only the initial linear portion of the logarithmic profile was utilized to determine the initial degradation rate constant (k, min^−1). Each substrate depletion rate constant was then used to calculate the in vitro intrinsic clearance value (CLint, in vitro, µL/min/mg protein) using Eq.
Unbound in vitro CLint values were obtained by dividing the measured CLint by the measured fu in microsomes.

human liver microsomes = details: microsomal protein 0.5 mg/mL; ref [23]–[28] of Additional file 1; cited from earlier work

Structure (SMILES)	Measured pKa [1]	Measured Log D7.4 [2]	Solubility FaSSGF (1 h) [3]	Solubility FaSSIF-V2 (5–6 h) [3]	Solubility FeSSIF-V2 (5–6 h) [3]	Solubility PBS7.4 (5–6 h) [3]	A–B Papp (Caco-2 cell monolayers)	B–A Papp (Caco-2 cell monolayers)	SLAD (physchem) [mg]	An (absorption number) (physchem; Peff × tres/R, minimum 1)	Ssi (estimated solubility in the small intestine) (physchem; based on measured FaSSIF solubility) [µg/mL]	Predicted human Peff (physchem; from Caco-2 Papp via calibration plot)	microsomal CLint at 1 µM ([4]; pH 7.4, Mean CLint, mean (S.D.)) [µL/min/mg]	microsomal CLint at 1 µM ([4]; pH 7.4, Range HLM CLint, 6–21 independent measurements, 0.4 mg/mL) [µL/min/mg]	Literature CLint (human liver microsomes)
CC1(C)CC(O)(COc2ccc(C3CCC4(CC3)OOC3(O4)C4CC5CC(C4)CC3C5)cc2)CC(C)(C)N1 (stereo not drawn) [MMV052]	8.3 ± 0.06 (B)	5.40	13.0 µg/mL and 24.7 µM	1140 µg/mL and 2170 µM	> 2000 µg/mL and > 3800 µM	49.6 µg/mL and 94.3 µM	> 300 10^−6 cm/s	> 300 10^−6 cm/s	7580	13	1140	11 10^−4 cm/s	–	–	–
Cc1ncc2n1-c1ccc(Cl)cc1C(c1ccccc1F)=NC2 [midazolam]	–	–	–	–	–	–	–	–	–	–	–	–	272	240 to 300	353 µL/min/mg and 178 µL/min/mg and 287 µL/min/mg

Reference: paper PMC6941357, “An in vitro toolbox to accelerate anti-malarial drug discovery and development” (Malaria Journal, 2020)
